From patent US20240226343A1, “NEUROPEPTIDE Y1 RECEPTOR (NPY1R) TARGETED THERAPEUTICS AND USES THEREOF” (RADIONETICS ONCOLOGY, INC., priority 2022, published 2024) come the findings set out here.

For the assay, the target named is T1, hNPY1R (Homo sapiens, UniProt P25929).
T1 construct: SK-N-MC cells endogenously expressing the NPY1R receptor; endogenous in cells; host or cells: SK-N-MC cells (crude membrane fractions)
T1 sequence (P25929 1-384): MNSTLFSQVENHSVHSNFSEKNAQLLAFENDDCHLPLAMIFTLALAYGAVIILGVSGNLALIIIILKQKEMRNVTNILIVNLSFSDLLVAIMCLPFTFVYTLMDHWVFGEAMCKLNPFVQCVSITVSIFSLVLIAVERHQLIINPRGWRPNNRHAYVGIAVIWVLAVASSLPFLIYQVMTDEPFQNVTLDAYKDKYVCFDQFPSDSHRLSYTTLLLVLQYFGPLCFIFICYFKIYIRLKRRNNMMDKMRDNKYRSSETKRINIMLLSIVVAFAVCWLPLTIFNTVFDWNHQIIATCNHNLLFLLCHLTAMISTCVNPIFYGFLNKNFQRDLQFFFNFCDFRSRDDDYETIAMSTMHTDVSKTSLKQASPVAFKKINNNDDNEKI
Nature of the assay: NPY1R binding assay: SK-N-MC membranes, [125I]-Peptide YY (human) competition. The following applies: SK-N-MC membranes. As for the experimental part:
Crude membrane fractions are prepared from SK-N-MC cells endogenously expressing the NPY1R receptor. The cells are grown to 85-100% confluence on standard tissue culture dishes in Eagle's Minimum Essential Medium supplemented with 10% dialyzed FBS. To prepare membranes, cells are scraped and collected in 1× Dulbecco's phosphate buffered saline and then pelleted at 1000 RPM's. The cell pellet is reconstituted in membrane preparation buffer (20 mM HEPES, 6 mM MgCl2 and 1 mM EGTA, protease inhibitor tablets, pH 7.4) and placed in a cell disruption vessel at 1000 PSI for 30 minutes on ice. The pressurized contents are then released and spun down at 1000 RPMs and the supernatant is collected and further centrifuged at 15,000 RPMs to pellet the membranes. The membrane pellet is resuspended in membrane preparation buffer, snap frozen and stored at −80° C. for later use.
[…] Assay contents are then filtered through unifilter GF/C microplates and washed with 9×400 μl of cold wash buffer (25 mM HEPES, 5 mM MgCl2, 1 mM CaCl2), 500 mM NaCl, 0.1% Tween-20, pH 7.4). Assay plates are read using a Top Count NXT and Ki values for compounds are determined using a GraphPad Prism 6 non-linear regression analysis.

Where [1] appears, read: data obtained after 120 minutes at rt, [125I]-Peptide YY, read-out: hNPY.R binding Ki* ††.
The mark [2] stands for this setting: data obtained after 60 minutes at 37° C., [125I]-Peptide YY 0.05 nM, read-out: hNPY1R binding Ki* †.

Each structure is given as a SMILES string. Where two headings read alike, the source gives them in different places.

In general, Ki refers to a measure of affinity in units of concentration, obtained from inhibition or displacement. For the compound `CCC(=O)NCCNC(=O)/N=C(/N)NCCC[C@@H](NC(=O)C(c1ccccc1)c1ccc(OCCCNc2c(NCCNC(=O)CN3CCN(CC(=O)O)CCN(CC(=O)O)CCN(CC(=O)O)CC3)c(=O)c2=O)cc1)C(=O)NCc1ccc(O)cc1` (single isomer, unassigned) [Compound 136B], under setting [1], the Ki is under 10 nM.

As to `CCNC(=O)/N=C(/N)NCCC[C@@H](NC(=O)C(c1ccccc1)c1cccc(OCCCCNC(=O)[C@@H](Cc2ccc(-c3ccccc3)cc2)NC(=O)[C@@H](CN)NC(=O)CN2CCN(CC(=O)O)CCN(CC(=O)O)CCN(CC(=O)O)CC2)c1)C(=O)NCc1ccc(O)cc1` (single isomer, unassigned) [Compound 148B], the Ki under setting [1] was under 10 nM. In the case of `CCC(=O)NCCNC(=O)/N=C(/N)NCCC[C@@H](NC(=O)C(c1ccccc1)c1cccc(OCCCCNC(=O)CCOCCOCCOCCOCCOCCOCCOCCOCCOCCOCCOCCOCCOCCOCCOCCOCCOCCOCCOCCOCCOCCOCCOCCOCCOCCOCCOCCOCCOCCOCCOCCOCCOCCOCCOCCOCCNC(=O)CN2CCN(CC(=O)O)CCN(CC(=O)O)CCN(CC(=O)O)CC2)c1)C(=O)NCc1ccc(O)cc1` (stereo partly shown) [Compound 126], under setting [1], the Ki lay within 10 to 100 nM. On to `CCC(=O)NCCNC(=O)/N=C(/N)NCCC[C@@H](NC(=O)C(c1ccccc1)c1cccc(OCCCCNc2c(NCCNC(=O)[C@@H](CCCCN)NC(=O)CN3CCN(CC(=O)O)CCN(CC(=O)O)CCN(CC(=O)O)CC3)c(=O)c2=O)c1)C(=O)NCc1ccc(O)cc1` (single isomer, unassigned) [Compound 116A], for which the Ki under setting [1] is under 10 nM.

As to `CCC(=O)NCCNC(=O)/N=C(/N)NCCC[C@@H](NC(=O)C(c1ccccc1)c1cccc(OCCCCNC(=O)[C@@H](CCCN)NC(=O)CCNC(=O)CN2CCN(CC(=O)O)CCN(CC(=O)O)CCN(CC(=O)O)CC2)c1)C(=O)NCc1ccc(O)cc1` (single isomer, unassigned) [Compound 147B], the inhibitory constant (Ki) under setting [1] was under 10 nM.

For the compound `CCC(=O)NCCNC(=O)/N=C(/N)NCCC[C@@H](NC(=O)C(c1ccccc1)c1ccc(NCCCNc2c(NCCNC(=O)[C@@H](CN)NC(=O)CN3CCN(CC(=O)O)CCN(CC(=O)O)CCN(CC(=O)O)CC3)c(=O)c2=O)cc1)C(=O)NCc1ccc(O)cc1` (single isomer, unassigned) [Compound 137B], the Ki under setting [1] is under 10 nM. As to `CCC(=O)NCCNC(=O)/N=C(/N)NCCC[C@@H](NC(=O)C(c1ccccc1)c1ccc(NCCCNC(=O)CCOCCOCCNC(=O)CN2CCN(CC(=O)O)CCN(CC(=O)O)CCN(CC(=O)O)CC2)cc1)C(=O)NCc1ccc(O)cc1` (single isomer, unassigned) [Compound 103A], the Ki under setting [2] is 10 to 100 nM. Take `CCC(=O)NCCNC(=O)/N=C(/N)NCCC[C@@H](NC(=O)C(c1ccccc1)c1cccc(OCCCCNC(=O)NOCCNC(=O)CN2CCN(CC(=O)O)CCN(CC(=O)O)CCN(CC(=O)O)CC2)c1)C(=O)NCc1c(F)cc(O)cc1F` (single isomer, unassigned) [Compound 163B]: the Ki under setting [1] is under 10 nM. Take `CCC(=O)NCCNC(=O)/N=C(/N)NCCC[C@@H](NC(=O)C(c1ccccc1)c1cccc(OCCCCNC(=O)CCOCCNC(=O)CN2CCN(CC(=O)O)CCN(CC(=O)O)CCN(CC(=O)O)CC2)c1)C(=O)NCc1ccc(O)cc1` (single isomer, unassigned) [Compound 108B]: under setting [2], the Ki is under 10 nM. `CCC(=O)NCCNC(=O)/N=C(/N)NCCC[C@@H](NC(=O)C(c1ccccc1)c1cccc(OCCCCNC(=O)CCCCCNC(=O)CN2CCN(CC(=O)O)CCN(CC(=O)O)CCN(CC(=O)O)CC2)c1)C(=O)NCc1ccc(O)cc1` (single isomer, unassigned) [Compound 140B]: the Ki under setting [1] was under 10 nM.

In the case of `CCC(=O)NCCNC(=O)/N=C(/N)NCCC[C@@H](NC(=O)C(c1ccccc1)c1ccc(NCCCNC(=O)[C@H](N)CCCNC(=O)[C@@H](Cc2ccc(-c3ccccc3)cc2)NC(=O)CN2CCN(CC(=O)O)CCN(CC(=O)O)CCN(CC(=O)O)CC2)cc1)C(=O)NCc1ccc(O)cc1` (single isomer, unassigned) [Compound 134A], under setting [1], the Ki was under 10 nM. On the same count and under the same terms, with `CCC(=O)NCCNC(=O)/N=C(/N)NCCC[C@@H](NC(=O)C(c1ccccc1)c1ccc(NCCCNC(=O)[C@H](N)CCC(=O)NCCN(C)CCNC(=O)CN2CCN(CC(=O)O)CCN(CC(=O)O)CCN(CC(=O)O)CC2)cc1)C(=O)NCc1ccc(O)cc1` (single isomer, unassigned) [Compound 145B] the figure was under 10 nM. Take `CCC(=O)NCCNC(=O)/N=C(/N)NCCC[C@@H](NC(=O)C(c1ccccc1)c1cccc(OCCCCNC(=O)[C@H](N)CCCCNC(=O)CN2CCN(CC(=O)O)CCN(CC(=O)O)CCN(CC(=O)O)CC2)c1)C(=O)NCc1ccc(O)cc1` (single isomer, unassigned) [Compound 109B]: under setting [2], the inhibitory constant (Ki) is under 10 nM. `CCC(=O)NCCNC(=O)/N=C(/N)NCCC[C@@H](NC(=O)C(c1ccccc1)c1cccc(OCCOCCOCCOCCOCCNC(=O)CN2CCN(CC(=O)O)CCN(CC(=O)O)CCN(CC(=O)O)CC2)c1)C(=O)NCc1ccc(O)cc1` (single isomer, unassigned) [Compound 101B]: the Ki under setting [2] was under 10 nM. For the compound `CCC(=O)NCCNC(=O)/N=C(/N)NCCC[C@@H](NC(=O)C(c1ccccc1)c1ccc(NCCCNC(=O)[C@H](N)CCCNC(=O)[C@@H](Cc2ccc(-c3ccccc3)cc2)NC(=O)CN2CCN(CC(=O)O)CCN(CC(=O)O)CCN(CC(=O)O)CC2)cc1)C(=O)NCc1ccc(O)cc1` (stereo partly drawn) [Compound 134B-In, indium (III) 2,2′,2″-(10-(2-(((R)-3-([1,1′-biphenyl]-4-yl)-1-(((R)-4-amino-5-((3-((4-((4R,Z)-9-amino-4-((4-hydroxybenzyl)carbamoyl)-2,11,16-trioxo-1-phenyl-3,8,10,12,15-pentaazaoctadec-9-en-1-yl)phenyl)amino)propyl)amino)-5-oxopentyl)amino)-1-oxopropan-2-yl)amino)-2-oxoethyl)-1,4,7,10-tetraazacyclododecane-1,4,7-triyl)triacetic acid], under setting [1], the Ki was under 10 nM. For the compound `CCC(=O)NCCNC(=O)/N=C(/N)NCCC[C@@H](NC(=O)C(c1ccccc1)c1cccc(OCCOCCOCCOCCOCCNC(=O)CN2CCN(CC(=O)O)CCN(CC(=O)O)CCN(CC(=O)O)CC2)c1)C(=O)NCc1ccc(O)cc1` (single isomer, unassigned) [Compound 101A], under setting [2], the Ki is under 10 nM.

For `CCC(=O)NCCNC(=O)/N=C(/N)NCCC[C@@H](NC(=O)C(c1ccccc1)c1cccc(OCCCCNC(=O)[C@@H](Cc2ccc3ccccc3c2)NC(=O)CCNC(=O)CN2CCN(CC(=O)O)CCN(CC(=O)O)CCN(CC(=O)O)CC2)c1)C(=O)NCc1ccc(O)cc1` (stereo partly drawn) [Compound 150, 2,2′,2″-(10-(2-((3-(((2R)-1-((4-(3-((4R,Z)-9-amino-4-((4-hydroxybenzyl)carbamoyl)-2,11,16-trioxo-1-phenyl-3,8,10,12,15-pentaazaoctadec-9-en-1-yl)phenoxy)butyl)amino)-3-(naphthalen-2-yl)-1-oxopropan-2-yl)amino)-3-oxopropyl)amino)-2-oxoethyl)-1,4,7,10-tetraazacyclododecane-1,4,7-triyl)triacetic acid], the Ki under setting [1] was under 10 nM. Consider `CCC(=O)NCCNC(=O)/N=C(/N)NCCC[C@@H](NC(=O)C(c1ccccc1)c1cccc(OCCCCNC(=O)CN2CCN(C(=O)CN3CCN(CC(=O)O)CCN(CC(=O)O)CCN(CC(=O)O)CC3)CC2)c1)C(=O)NCc1ccc(O)cc1` (single isomer, unassigned) [Compound 118A], for which the Ki is under 10 nM under setting [2] and under 10 nM under setting [1].

Regarding `CCC(=O)NCCNC(=O)/N=C(/N)NCCC[C@@H](NC(=O)C(c1ccccc1)c1cccc(OCCCCNC(=O)CC[C@@H](NC(=O)CN2CCN(CC(=O)O)CCN(CC(=O)O)CCN(CC(=O)O)CC2)C(=O)O)c1)C(=O)NCc1ccc(O)cc1` (single isomer, unassigned) [Compound 110B], the Ki under setting [2] was under 10 nM. Consider `CCC(=O)NCCNC(=O)/N=C(/N)NCCC[C@@H](NC(=O)C(c1ccccc1)c1cccc(OCCOCCOCCNC(=O)CN2CCN(CC(=O)O)CCN(CC(=O)O)CCN(CC(=O)O)CC2)c1)C(=O)NCc1ccc(O)cc1` (stereo partly drawn) [Compound 105, 2,2′,2″-(10-(2-((2-(2-(2-(3-((4R,Z)-9-amino-4-((4-hydroxybenzyl)carbamoyl)-2,11,16-trioxo-1-phenyl-3,8,10,12,15-pentaazaoctadec-9-en-1-yl)phenoxy)ethoxy)ethoxy)ethyl)amino)-2-oxoethyl)-1,4,7,10-tetraazacyclododecane-1,4,7-triyl)triacetic acid], for which, under setting [2], the Ki is under 10 nM. `CCC(=O)NCCNC(=O)/N=C(/N)NCCC[C@@H](NC(=O)C(c1ccccc1)c1cccc(OCCCCNc2c(NCCNC(=O)CN3CCN(CC(=O)O)CCN(CC(=O)O)CCN(CC(=O)O)CC3)c(=O)c2=O)c1)C(=O)NCc1ccc(O)cc1` (single isomer, unassigned) [Compound 111A]: the Ki under setting [2] is under 10 nM.
